Laboratory results taken from ChEMBL document CHEMBL1149655, “Non-steroidal glucocorticoid agonists: the discovery of aryl pyrazoles as A-ring mimetics” (Bioorg Med Chem Lett, 2007).

What follows are compounds tested against T1, Glucocorticoid receptor (Homo sapiens, UniProt P04150).
T1 sequence (P04150 whole entry): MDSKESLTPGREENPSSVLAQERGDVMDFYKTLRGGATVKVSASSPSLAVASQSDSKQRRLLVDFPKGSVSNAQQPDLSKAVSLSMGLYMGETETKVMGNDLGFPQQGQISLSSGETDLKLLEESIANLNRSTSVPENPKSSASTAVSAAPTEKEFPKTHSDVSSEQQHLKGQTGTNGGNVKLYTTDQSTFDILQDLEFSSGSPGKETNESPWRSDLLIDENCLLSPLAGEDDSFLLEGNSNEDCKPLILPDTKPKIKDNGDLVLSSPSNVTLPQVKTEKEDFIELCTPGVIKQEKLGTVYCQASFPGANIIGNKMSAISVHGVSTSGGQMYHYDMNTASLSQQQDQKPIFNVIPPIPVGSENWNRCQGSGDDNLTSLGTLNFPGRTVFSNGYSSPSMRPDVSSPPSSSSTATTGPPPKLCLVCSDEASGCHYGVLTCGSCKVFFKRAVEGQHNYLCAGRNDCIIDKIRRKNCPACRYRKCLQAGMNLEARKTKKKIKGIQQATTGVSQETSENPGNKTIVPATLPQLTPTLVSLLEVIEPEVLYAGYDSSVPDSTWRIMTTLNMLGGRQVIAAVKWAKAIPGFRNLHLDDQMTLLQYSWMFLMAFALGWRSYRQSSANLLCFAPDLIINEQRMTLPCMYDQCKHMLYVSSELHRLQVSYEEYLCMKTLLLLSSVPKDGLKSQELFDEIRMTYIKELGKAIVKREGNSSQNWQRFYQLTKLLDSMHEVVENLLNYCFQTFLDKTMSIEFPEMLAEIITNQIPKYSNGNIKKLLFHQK
Description: Agonist activity at glucocorticoid receptor in human A549 cells by NF-kappaB transrepression assay

Row | IC50 [µM] | SMILES
1 | > 1 | CCn1nc(C)c(Br)c1C(=O)NCC(O)(CC1(C)CCCc2ccccc21)C(F)(F)F (stereo not drawn)
2 | > 1 | Cc1c(S(=O)(=O)NCC(O)(CC2(C)CCCc3ccccc32)C(F)(F)F)cnn1-c1ccccc1 (stereo in doubt; 17D2E2)
3 | 0.0832 | Cc1c(C(=O)NCC(O)(CC2(C)CCCc3ccccc32)C(F)(F)F)cnn1-c1ccccc1 (stereo in doubt; 18D1)
4 | 0.049 | Cc1c(C(=O)NCC(O)(CC2(C)CCCc3ccccc32)C(F)(F)F)cnn1-c1ccccc1 (stereo in doubt; 18D1E1)
5 | 0.017 | CC1(CC(O)(CNC(=O)c2cnn(-c3ccccc3)c2N)C(F)(F)F)CCCc2ccccc21 (stereo in doubt; 19D1E1)
6 | 0.00589 | CC1(CC(O)(CNC(=O)c2cnn(-c3ccccc3)c2N)C(F)(F)F)CCCc2ccccc21 (stereo in doubt; 19D1E2)
7 | 0.00363 | CCC1(CC(O)(CNC(=O)c2cnn(-c3ccc(F)cc3)c2N)C(F)(F)F)CCCc2ccccc21 (stereo in doubt; 21D1E1)
8 | 0.00302 | CCC1(CC(O)(CNC(=O)c2cnn(-c3ccc(F)cc3)c2N)C(F)(F)F)CCCc2ccccc21 (stereo in doubt; 21D1E2)

Row | SMILES | IC50 [µM]
9 | CCC1(CC(O)(CNC(=O)c2cnn(-c3ccccc3)c2N)C(F)(F)F)CCCc2ccccc21 (stereo not drawn) | 0.00166

Biological target: T1, Glucocorticoid receptor
Remark: another data set of the same source
Description: Binding affinity to glucocorticoid receptor

Row | IC50 [µM] | SMILES
10 | 0.0407 | CCn1nc(C)c(Br)c1C(=O)NCC(O)(CC1(C)CCCc2ccccc21)C(F)(F)F (stereo not drawn)
11 | 0.0302 | Cc1c(S(=O)(=O)NCC(O)(CC2(C)CCCc3ccccc32)C(F)(F)F)cnn1-c1ccccc1 (stereo in doubt; 17D2E2)
12 | 0.00759 | Cc1c(C(=O)NCC(O)(CC2(C)CCCc3ccccc32)C(F)(F)F)cnn1-c1ccccc1 (stereo in doubt; 18D1)
13 | 0.00933 | Cc1c(C(=O)NCC(O)(CC2(C)CCCc3ccccc32)C(F)(F)F)cnn1-c1ccccc1 (stereo in doubt; 18D1E1)
14 | 0.00575 | CC1(CC(O)(CNC(=O)c2cnn(-c3ccccc3)c2N)C(F)(F)F)CCCc2ccccc21 (stereo in doubt; 19D1E1)
15 | 0.00513 | CC1(CC(O)(CNC(=O)c2cnn(-c3ccccc3)c2N)C(F)(F)F)CCCc2ccccc21 (stereo in doubt; 19D1E2)
16 | 0.02 | CCC1(CC(O)(CNC(=O)c2cnn(-c3ccc(F)cc3)c2N)C(F)(F)F)CCCc2ccccc21 (stereo in doubt; 21D1E1)
17 | 0.00977 | CCC1(CC(O)(CNC(=O)c2cnn(-c3ccc(F)cc3)c2N)C(F)(F)F)CCCc2ccccc21 (stereo in doubt; 21D1E2)

Row | SMILES | IC50 [µM]
18 | CCC1(CC(O)(CNC(=O)c2cnn(-c3ccccc3)c2N)C(F)(F)F)CCCc2ccccc21 (stereo not drawn) | 0.00741

Biological target: T1, Glucocorticoid receptor
Remark: another data set of the same source

Row | IC50 [µM] | SMILES
19 | 0.309 | Cc1c(S(=O)(=O)NCC(O)(CC2(C)CCCc3ccccc32)C(F)(F)F)cnn1-c1ccccc1 (stereo in doubt; 17D2E2)
20 | 0.603 | Cc1c(C(=O)NCC(O)(CC2(C)CCCc3ccccc32)C(F)(F)F)cnn1-c1ccccc1 (stereo in doubt; 18D1)
21 | 0.933 | Cc1c(C(=O)NCC(O)(CC2(C)CCCc3ccccc32)C(F)(F)F)cnn1-c1ccccc1 (stereo in doubt; 18D1E1)

What follows are compounds tested against T1, Glucocorticoid receptor (assay: Agonist activity at glucocorticoid receptor in human A549 cells by MMTV transactivation assay).
Type: functional, cell-based

Row | EC50 [µM] | SMILES
22 | > 1 | Cc1c(S(=O)(=O)NCC(O)(CC2(C)CCCc3ccccc32)C(F)(F)F)cnn1-c1ccccc1 (stereo in doubt; 17D2E2)
23 | > 1 | Cc1c(C(=O)NCC(O)(CC2(C)CCCc3ccccc32)C(F)(F)F)cnn1-c1ccccc1 (stereo in doubt; 18D1E1)
24 | 0.182 | CC1(CC(O)(CNC(=O)c2cnn(-c3ccccc3)c2N)C(F)(F)F)CCCc2ccccc21 (stereo in doubt; 19D1E1)
25 | 0.0182 | CC1(CC(O)(CNC(=O)c2cnn(-c3ccccc3)c2N)C(F)(F)F)CCCc2ccccc21 (stereo in doubt; 19D1E2)
26 | 0.00776 | CCC1(CC(O)(CNC(=O)c2cnn(-c3ccc(F)cc3)c2N)C(F)(F)F)CCCc2ccccc21 (stereo in doubt; 21D1E1)
27 | 0.0107 | CCC1(CC(O)(CNC(=O)c2cnn(-c3ccc(F)cc3)c2N)C(F)(F)F)CCCc2ccccc21 (stereo in doubt; 21D1E2)

Row | SMILES | EC50 [µM]
28 | CCC1(CC(O)(CNC(=O)c2cnn(-c3ccccc3)c2N)C(F)(F)F)CCCc2ccccc21 (stereo not drawn) | 0.00562
